Patent US20080269267A1, “KINASE INHIBITORS USEFUL FOR THE TREATMENT OF MYLEOPROLIFIC DISEASES AND OTHER PROLIFERATIVE DISEASES” (Deciphera Pharmaceuticals, LLC, priority 2007, published 2008)

The molecules below were run against T1, c-Kit kinase (SEQ ID NO:9) (Homo sapiens, UniProt P10721) (assay: c-Kit kinase assay (pyruvate kinase/lactate dehydrogenase coupled)). Settings: <2 min preincubation at 22° C., ATP 200 μM; read-out: c-Kit Enzyme Assay, biochemical IC50.
T1 construct: purchased ProQinase
Method: C-Kit Kinase (SEQ ID NO:9) Assay
Activity of c-Kit kinase (SEQ ID NO:9) was determined by following the production of ADP from the kinase reaction through coupling with the pyruvate kinase/lactate dehydrogenase system (e.g., Schindler, et al. Science (2000) 289, 1938-1942). In this assay, the oxidation of NADH (thus the decrease at A340 nm) was continuously monitored spectrophometrically. The reaction mixture ([…]) contained c-Kit (cKIT residues T544-V976, from ProQinase, 5.4 nM), polyE4Y (1 mg/ml), MgCl2 (10 mM), pyruvate kinase (4 units), lactate dehydrogenase (0.7 units), phosphoenol pyruvate (1 mM), and NADH (0.28 mM) in 90 mM Tris buffer containing 0.2% octyl-glucoside and 1% DMSO, pH 7.5. Test compounds were incubated with […] (SEQ ID NO:9) and other reaction reagents at 22° C. for <2 min before ATP (200 μM) was added to start the reaction. The absorption at 340 nm was monitored continuously for 0.5 hours at 30° C. on Polarstar Optima plate reader (BMG). The reaction rate was calculated using the 0 to 0.5 h time frame. Percent inhibition was obtained by comparison of reaction rate with that of a control (i.e. with no test compound). IC50 values were calculated from a series of percent inhibition values determined at a range of inhibitor concentrations using software routines as implemented in the GraphPad Prism software package.

T1 sequence (P10721 with tags, fused parts or gaps): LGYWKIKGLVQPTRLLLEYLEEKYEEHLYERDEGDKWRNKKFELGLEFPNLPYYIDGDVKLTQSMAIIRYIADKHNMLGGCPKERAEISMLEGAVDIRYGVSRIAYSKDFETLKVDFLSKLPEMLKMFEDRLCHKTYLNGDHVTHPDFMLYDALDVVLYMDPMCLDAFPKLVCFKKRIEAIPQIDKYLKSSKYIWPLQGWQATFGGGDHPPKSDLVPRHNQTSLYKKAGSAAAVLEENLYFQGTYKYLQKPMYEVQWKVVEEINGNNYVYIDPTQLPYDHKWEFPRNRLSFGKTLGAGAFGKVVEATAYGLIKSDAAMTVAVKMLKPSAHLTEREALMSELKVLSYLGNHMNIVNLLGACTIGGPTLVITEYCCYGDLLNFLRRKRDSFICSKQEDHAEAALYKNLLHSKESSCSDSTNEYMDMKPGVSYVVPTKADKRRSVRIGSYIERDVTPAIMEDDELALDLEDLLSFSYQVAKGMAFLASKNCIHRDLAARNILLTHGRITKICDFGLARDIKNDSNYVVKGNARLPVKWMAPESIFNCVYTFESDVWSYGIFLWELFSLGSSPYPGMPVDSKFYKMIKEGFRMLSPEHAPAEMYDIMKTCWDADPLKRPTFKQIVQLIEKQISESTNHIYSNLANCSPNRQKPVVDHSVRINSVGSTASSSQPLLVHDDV

IC50 [nM] | Compound
< 100 | CCc1cc(NC(=O)Nc2ccc(Oc3ccnc(-c4cnn(C)c4)c3)cc2F)n(-c2cccc(C#N)c2)n1 [Example 9, 1-(1-(3-cyanophenyl)-3-ethyl-1H-pyrazol-5-yl)-3-(2-fluoro-4-(2-(1-methyl-1H-pyrazol-4-yl)pyridin-4-yloxy)phenyl)urea]
< 100 | CC(C)c1cc(NC(=O)Nc2ccc(Oc3ccnc(-c4cnn(C)c4)c3)c(F)c2F)n(-c2cccc(C#N)c2)n1 [Example 13, 1-(1-(3-cyanophenyl)-3-isopropyl-1H-pyrazol-5-yl)-3-(2,3-difluoro-4-(2-(1-methyl-1H-pyrazol-4-yl)pyridin-4-yloxy)phenyl)urea]
< 100 | CCc1cc(NC(=O)Nc2ccc(Oc3ccnc(-c4cnn(C(C)C)c4)c3)cc2F)n(-c2cccc(C#N)c2)n1 [Example 17, 1-(1-(3-cyanophenyl)-3-ethyl-1H-pyrazol-5-yl)-3-(2-fluoro-4-(2-(1-isopropyl-1H-pyrazol-4-yl)pyridin-4-yloxy)phenyl)urea]
< 100 | CC(C)n1cc(NC(=O)Nc2ccc(Oc3ccnc(-c4cnn(C)c4)c3)cc2F)c(-c2ccccc2)n1 [Example 21, 1-(2-fluoro-4-(2-(1-methyl-1H-pyrazol-4-yl)pyridin-4-yloxy)phenyl)-3-(1-isopropyl-3-phenyl-1H-pyrazol-4-yl)urea]
< 100 | Cc1c(Oc2ccnc(-c3cnn(C)c3)c2)ccc(NC(=O)Nc2cc(C(C)C)nn2-c2cccc(C#N)c2)c1F [Example 12, 1-(1-(3-cyanophenyl)-3-isopropyl-1H-pyrazol-5-yl)-3-(2-fluoro-3-methyl-4-(2-(1-methyl-1H-pyrazol-4-yl)pyridin-4-yloxy)phenyl)urea]
< 100 | CCc1cc(NC(=O)Nc2ccc(Oc3ccnc(-c4cnn(C)c4)c3)cc2F)n(-c2ccc(CO)cc2)n1 [Example 19, 1-(3-ethyl-1-(4-(hydroxymethyl)phenyl)-1H-pyrazol-5-yl)-3-(2-fluoro-4-(2-(1-methyl-1H-pyrazol-4-yl)pyridin-4-yloxy)phenyl)urea]
< 100 | CC(C)c1cc(NC(=O)Nc2ccc(Oc3ccnc(-c4cnn(C)c4)c3)cc2F)n(-c2ccc(F)c(C#N)c2)n1 [Example 5, 1-(1-(3-cyano-4-fluorophenyl)-3-isopropyl-1H-pyrazol-5-yl)-3-(2-fluoro-4-(2-(1-methyl-1H-pyrazol-4-yl)pyridin-4-yloxy)phenyl)urea]
< 100 | CC(C)c1cc(NC(=O)Nc2ccc(Oc3ccnc(-c4cnn(C)c4)c3)cc2F)n(-c2cccc(C#N)c2)n1 [Example 2, 1-(1-(3-cyanophenyl)-3-isopropyl-1H-pyrazol-5-yl)-3-(2-fluoro-4-(2-(1-methyl-1H-pyrazol-4-yl)pyridin-4-yloxy)phenyl)urea]
